# Measured values taken from patent publication US6329378A, “Hydrazone, hydrazine and thiosemicarbazone derivatives as antifungal agents” (Anadys Pharmaceuticals, Inc., priority 2000, dated 2001).
# Experiments:
# [1] = test system: S. serevisiae; experiment: MIC, broth microdilution (NCCLS M27-A), S. cerevisiae; assay type: cell-based, Saccharomyces cerevisiae; conditions: for MIC: Saccharomyces cerevisiae, 48 h, read-out: MIC S. serevisiae; for MIC S. serevisiae: broth microdilution, 35° C., 48 hours, S. cerevisiae CTY552
# Protocol: (§1) Compounds of the invention were tested for antifungal susceptibility using broth microdilution assay established by the National Committee for Clinical Laboratory Standards, in NCCLS Document M27-A, which is hereby incorporated by reference. Minimum inhibitory concentrations (MICs) and minimum fungicidal concentrations (MFCs) were measured.
# (§2) Yeasts (Saccharomyces cerevisiae and Candida albicans) are cultured on SDA plates in a 35° C. incubator. Strains on SDA plates are stored at 4° C. and used as working stock cultures.
# (§3) Inoculum for susceptibility testing is prepared from fresh 24 hour cultures. 5-10 colonies are scraped from the plate and suspended in three milliliters of sterile 0.85% saline (8.5 g/liter NaCl). The cell density of the solution is determined by measuring the absorbance in a spectrophotometer (Shimadzu UV-1201S UV-VIS Spectrophotometer) set at 600 nm. An absorbance value between 0.1 and 0.4 is required for an accurate reading.
# (§4) For Candida albicans strains ATCC 10231, 1.0 OD600 unit is approximately 10^7 cells per ml. For Saccharomyces cerevisiae strain CTY552, 1.0 OD600 unit is slightly less than 10^7 cells per ml. Cell suspensions are diluted with the appropriate medium (typically RPMI-1640) to OD600 =0.0003 for Candida and OD600 =0.0004 for Saccharomyces. The diluted suspension contains approximately 3×10^3 cells per ml (this is a 2×concentration inoculum). Two 100 μl aliquots of this dilution are spread on SDA plates and incubated at 35° C. for 1-2 days to determine the precise number of colony forming units. An acceptable range for the inoculum (2×) is 1-5×10^3 cfu/ml (100-500 for 100 μl). Following two-fold dilution of the inoculum with compound, the final concentration of cells will be 0.5-2.5×10^3 per ml. The inoculum is kept at 4° C. and used within a few hours.
# (§5) Stock solutions and concentrations tested will vary from compound to compound. In general, though, stock solutions of 12.8 mg/ml in DMSO (Sigma D-8779) are prepared. This will allow for a 128 μg/ml starting test concentration containing 1% DMSO. Stock solutions are stored at -20° C. and dilutions for antifungal testing are freshly prepared before each assay.
# (§6) Stock solutions of Amphotericin B and Itraconazole are prepared at 1.6 mg/ml in DMSO. Amphotericin B is sold as a powder that is approximately 80% Amphotericin B. Stock solutions are made accordingly (2.0 mg of powder for a 1 ml solution of 1.6 mg/ml Amphotericin B).
# (§7) Stock solutions of control compounds (1.6 mg/ml, Amphotericin B or Itraconazole) are initially diluted in medium to a concentration of 32 μg/ml while stock solutions of test compounds (typically 12.8 mg/ml) are diluted to 256 μg/ml. Both of these (control and test compounds) represent 1:50 dilutions. For an assay with three fungal strains, 40 microliters of a stock solution are diluted to 2.0 ml with room temperature medium.
# (§8) Antifungal susceptibility tests are setup in polystyrene, 96-well, flat bottom plates (Costar 9017). To every well in columns 2-12 is added 100 microliters of media. An electronic multichannel (12) pipettor with no tip on channel one is used. To every well in column one is added 200 microliters of diluted compound (32 μg/ml for Amphotericin B and Itraconazole controls, 256 μg/ml for test compounds, 100-fold dilution for natural product extracts). A manual multichannel (8) pipettor is then used to set up a series of 2-fold dilutions. 100 microliters is removed from each well of column one and mixed with 100 microliters in column 2. This is done successively (column two to column three etc.) to produce a set of 11 serial dilutions (column 12 is a drug free control).
# (§9) To every well in two rows, 100 μl of inoculum (2×) of a single strain is added. To the final two rows on the plate (G & H), only media is added. Addition of inoculum is best accomplished using an electronic multichannel (12) pipettor. […]
# [2] = test system: C. albicans; experiment: MIC, broth microdilution (NCCLS M27-A), C. albicans; assay type: cell-based, Candida albicans; conditions: 48 hours, C. albicans ATCC 10231; for MIC: Candida albicans, ATCC10231, 35° C.; for MIC C. albicans: 35° C.
# Protocol: as §1, §2, §3, §4, §5, §6
# (§10) Both of these (control and test compounds) represent 1:50 dilutions. For an assay with three fungal strains, 40 microliters of a stock solution are diluted to 2.0 ml with room temperature medium.
# as §8
# (§11) To every well in two rows, 100 μl of inoculum (2×) of a single strain is added. To the final two rows on the plate (G & H), only media is added. Addition of inoculum is best accomplished using an electronic multichannel (12) pipettor. This setup (see below) creates a starting cell density of […] (100-500 per well) and drug concentration ranging from 16 μg/ml to […] for controls (Amphotericin B and Itraconazole), 128 μg/ml to 0.125 μg/ml for pure test compounds, and 200 to 204, 800-fold dilutions for natural product extracts.
# [3] = test system: C. albicans; experiment: Minimum fungicidal concentration (MFC), C. albicans; assay type: cell-based, Candida albicans; conditions: viability on SDA plate, 35° C.; for MFC: Candida albicans
# Protocol: as §1, §2, §3, §4, §5, §6, §7, §8, §9
# [4] = test system: A. Nidulans; experiment: MIC, broth microdilution (NCCLS M27-A), A. nidulans; assay type: cell-based; conditions: 35° C., 48 hours; for MIC: Aspergillus nidulans
# Protocol: as §1
# Filamentous fungi (Aspergillus spp.) is cultured on PDA plates in a 35° C. incubator. Inoculum of Aspergillus for susceptibility testing is prepared from plates incubated at 35° C. for 5 days. Colonies are covered with 5 ml of sterile 0.85% saline (8.5 g/liter NaCl) and gently rocked for 10-15 minutes. To dislodge the conidia, an automatic pipettor is used to gently wash over the colonies. The saline solution is removed from the plate and the heavy particles are allowed to settle for 3-5 minutes. The upper suspension is removed and vortexed for 15 sec. The turbidity of the solution is determined by measuring the absorbance in a spectrophotometer (Shimadzu UV-1201S UV-VIS Spectrophotometer) set at 600 nm. An absorbance value between 0.1 and 0.4 is required for an accurate reading.
# The cell suspension is diluted with the appropriate medium (typically RPMI-1640) to OD600 =0.0004. The final suspension should contain approximately 3×10^3 cfu per ml (this is a 2×concentrationinoculum). Two 100 μl aliquots of this dilution are spread on SDA plates and incubated at 35° C. for 1-2 days to determine the precise number of colony forming units. An acceptable range for the inoculum (2×) is 1-5×10^3 cfu/ml (100-500 for 100 μl). Following two-fold dilution of the inoculum with compound, the final concentration of cells will be 0.5-2.5×10^3 per ml. The inoculum is kept at 4° C. and used within a few hours.
# as §5, §6, §10, §8, §11
Molecule,MIC [1] [µg/mL],MIC [2] [µg/mL],MFC [3] [µg/mL],MIC [4] [µg/mL],MIC S. serevisiae [1] [µg/mL],MIC C. albicans [2] [µg/mL],MFC C. albicans [3] [µg/mL],MIC A. Nidulans [4] [µg/mL]
"COc1ccc(Br)c(C=NNc2nccnc2OC)c1O [(15), 6-bromo-2-hydroxy-3-methoxybenzaldehyde-N-(3-methoxy-2-pyrazinyl)hydrazone]",1,1,> 128,8,–,–,–,–
CCN(CC)c1ccc(/C=N/NC(=S)Nc2cccc(C(F)(F)F)c2)c(O)c1 [(48)],0.5,1,> 128,0.5,–,–,–,–
"COc1cc(Br)cc(C=NNc2nccnc2OC)c1O [(14), 5-bromo-2-hydroxy-3-methoxybenzaldehyde-N-(3-methoxy-2-pyrazinyl)hydrazone]",0.5,0.5,> 128,1,–,–,–,–
"COc1nccnc1N/N=C/c1cc(Cl)cc(Cl)c1O [(1), 3,5-dichloro-2-hydroxybenzaldehyde-N-(3-methoxy-2-pyrazinyl)hydrazone]",1,1,> 128,2,–,–,–,–
"3,5-dichloro-2-hydroxybenzaldehyde-N-(3-chloro-2-pyrazinyl)hydrazine [(16)]",–,–,–,–,8,8,> 128,128
"COc1ccc(C=NNc2nccnc2OC)c(O)c1 [(13), 2-hydroxy-4-methoxybenzaldehyde-N-(3-methoxy-2-pyrazinyl)hydrazone]",0.5,1,> 128,4,–,–,–,–
"Oc1c(Cl)cc(Cl)cc1/C=N/NC(=S)Nc1cc(C(F)(F)F)cc(C(F)(F)F)c1 [(35), N-[3,5bis(trifluoromethyl)phenyl]-2-[(E)-(3,5-dichloro-2-hydroxyphenyl)methylidene]-1-hydrazonecarbothioamide]",2,2,> 128,4,–,–,–,–
COc1nccnc1NN=Cc1ccccc1O [(4)],1,1,> 128,2,–,–,–,–
Oc1cc(OCc2ccccc2)ccc1/C=N/NC(=S)Nc1cccc(C(F)(F)F)c1 [(42)],0.25,0.25,> 128,0.25,–,–,–,–
COc1nccnc1NN=Cc1cc(Cl)ccc1O [(2)],1,1,> 128,2,–,–,–,–
Oc1cc(N2CCOCC2)ccc1/C=N/NC(=S)Nc1cccc(C(F)(F)F)c1 [(49)],1,2,> 128,0.5,–,–,–,–
COc1nccnc1NN=Cc1cccc(F)c1O [(3)],1,0.5,> 128,2,–,–,–,–
"COc1nccnc1NN=Cc1cccc([N+](=O)[O-])c1O [(12), 2-hydroxy-3-nitrobenzaldehyde-N-(3-methoxy-2-pyrazinyl)hydrazone]",4,4,> 128,8,–,–,–,–
O=S(=O)(c1ccc(NC(=S)N/N=C/c2ccc(OCc3ccccc3)cc2O)cc1)N1CCCCC1 [(51)],–,–,–,–,0.5,16,–,1
COC(=O)c1ccc(COc2ccc(/C=N/NC(=S)Nc3cccc(C(F)(F)F)c3)c(O)c2)cc1 [(43)],0.5,0.5,–,0.25,–,–,–,–
"CCOc1cccc(C=NNc2nccnc2OC)c1O [(11), 3-ethoxy-2-hydroxybenzaldehyde-N-(3-methoxy-2-pyrazinyl)hydrazone]",1,2,> 128,2,–,–,–,–
"O=C(O)c1ccc(O)c(C=NNc2cccc(Cl)c2)c1 [(30), 5-carboxyl-2-hydroxybenzaldehyde-N-3-chloro-phenyl hydrazone]",1,2,–,0.5,–,–,–,–
COc1nccnc1N/N=C/c1ccccn1 [(10)],1,2,> 128,2,–,–,–,–
COC(=O)c1ccc(COc2ccc(/C=N/NC(=S)Nc3ccc(Cl)cc3)c(O)c2)cc1 [(46)],0.25,1,–,0.25,–,–,–,–
COc1nccnc1N/N=C/c1ccc(O)c(O)c1O [(8)],2,4,–,> 128,–,–,–,–
